According to US10428044B2, “3-amino-1,5,6,7-tetrahydro-4H-indol-4-ones” (Bayer Pharma Aktiengesellschaft, priority 2014, dated 2019):

Target: (recombinant) catalytic domain of human Bub1 (amino acids 704-1085) (Homo sapiens (Human), UniProt O43683)
Assay: Bub1 kinase assay (TR-FRET)
Format: biochemical
Details: ATP 10 μM final, peptide substrate 1 μM final, 60 min at 22° C., read-out: Biological Assay: Bub1 kinase assay median IC50
How it was run: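 Readout was TR-FRET between a Eu-labeled antibody complex recognizing phosphoserine and streptavidin-XL665 on the biotinylated peptide, after EDTA stop and 1 h at 22° C. The kinase reaction ran for 60 min at 22° C. Values are means or medians of repeat tests, from 4-parameter fits normalized to enzyme-free and inhibitor-free controls.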

Chain of (recombinant) catalytic domain of human Bub1 (amino acids 704-1085) (O43683 704-1085): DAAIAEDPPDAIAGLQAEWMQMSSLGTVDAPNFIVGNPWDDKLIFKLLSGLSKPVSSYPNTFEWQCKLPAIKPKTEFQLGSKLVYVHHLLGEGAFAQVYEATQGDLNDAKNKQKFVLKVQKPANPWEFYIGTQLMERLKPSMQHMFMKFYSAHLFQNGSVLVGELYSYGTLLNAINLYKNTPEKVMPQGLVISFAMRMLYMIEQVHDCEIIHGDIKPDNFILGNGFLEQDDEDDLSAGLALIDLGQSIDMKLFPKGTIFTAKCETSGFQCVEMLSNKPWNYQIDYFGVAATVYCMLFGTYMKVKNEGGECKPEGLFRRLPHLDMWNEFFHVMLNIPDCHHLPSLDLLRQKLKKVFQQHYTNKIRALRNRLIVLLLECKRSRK

| Compound | IC50 [nM] |
| --- | --- |
| CC1(C)CC(=O)c2c([nH]c(-c3ccncc3O)c2Nc2ccccc2)C1 [Example 464, 3-anilino-2-(3-hydroxypyridin-4-yl)-6,6-dimethyl-1,5,6,7-tetrahydro-4H-indol-4-one] | 58.9 |
| O=C1CCCc2[nH]c(-c3ccnc(NC(=O)C4C[C@H]4F)c3)c(Nc3ccccc3)c21 (mixture of isomers) [Example 252, rel-(S,S/R,R)-2-fluoro-N-{4-[4-oxo-3-(phenylamino)-4,5,6,7-tetrahydro-1H-indol-2-yl]pyridin-2-yl}cyclopropanecarboxamide] | 16.6 |
| COc1cc(Nc2c(-c3ccncc3)[nH]c3c2C(=O)CC(C)(C)C3)ccc1F [Example 110, 3-[(4-fluoro-3-methoxyphenyl)amino]-6,6-dimethyl-2-(pyridin-4-yl)-1,5,6,7-tetrahydro-4H-indol-4-one] | 235 |
| CC1(C)CC(=O)c2c([nH]c(-c3ccncc3)c2Nc2cccc3ccccc23)C1 [Example 157, 6,6-dimethyl-3-(naphthalen-1-ylamino)-2-(pyridin-4-yl)-1,5,6,7-tetrahydro-4H-indol-4-one] | 764 |
| Cn1cc(C(=O)Nc2cc(-c3[nH]c4c(c3Nc3ccccc3)C(=O)CC(C)(C)C4)ccn2)cn1 [Example 506, N-{4-[6,6-dimethyl-4-oxo-3-(phenylamino)-4,5,6,7-tetrahydro-1H-indol-2-yl]pyridin-2-yl}-1-methyl-1H-pyrazole-4-carboxamide] | 7.77 |
| CC(C)CNC(=O)Nc1cc(-c2[nH]c3c(c2Nc2ccccc2)C(=O)CCC3)ccn1 [Example 381, 1-(2-methylpropyl)-3-{4-[4-oxo-3-(phenylamino)-4,5,6,7-tetrahydro-1H-indol-2-yl]pyridin-2-yl}urea] | 94.4 |
| CC1(C)CC(=O)c2c([nH]c(-c3ccncc3)c2Nc2ccccc2C(C)(C)O)C1 [Example 488, 3-{[2-(2-hydroxypropan-2-yl)phenyl]amino}-6,6-dimethyl-2-(pyridin-4-yl)-1,5,6,7-tetrahydro-4H-indol-4-one] | 39.1 |
| CC1(C)CC(=O)c2c([nH]c(-c3ccncc3)c2Nc2ncccc2CO)C1 [Example 511, 3-{[3-(hydroxymethyl)pyridin-2-yl]amino}-6,6-dimethyl-2-(pyridin-4-yl)-1,5,6,7-tetrahydro-4H-indol-4-one] | 65.2 |
| CC(Nc1cc(-c2[nH]c3c(c2Nc2ccccc2)C(=O)CC(C)(C)C3)ccn1)C(F)F (stereo not shown) [Example 363, 2-(2-{[1,1-difluoropropan-2-yl]amino}pyridin-4-yl)-6,6-dimethyl-3-(phenylamino)-1,5,6,7-tetrahydro-4H-indol-4-one] | 207 |
| COc1cc(C(=O)Nc2cc(-c3[nH]c4c(c3Nc3ccccc3)C(=O)CC(C)(C)C4)ccn2)ccc1F [Example 474, N-{4-[6,6-dimethyl-4-oxo-3-(phenylamino)-4,5,6,7-tetrahydro-1H-indol-2-yl]pyridin-2-yl}-4-fluoro-3-methoxybenzamide] | 8.63 |
| COC(=O)C[n+]1ccc(-c2[nH]c3c(c2Nc2ccccc2)C(=O)CC(C)(C)C3)cc1 [Example 193, 4-[6,6-dimethyl-4-oxo-3-(phenylamino)-4,5,6,7-tetrahydro-1H-indol-2-yl]-1-(2-methoxy-2-oxoethyl)pyridinium bromide] | 921 |
| CC1(C)CC(=O)c2c([nH]c(-c3cc[n+](CC(F)(F)F)cc3)c2Nc2ccccc2)C1 [Example 190, 4-[6,6-dimethyl-4-oxo-3-(phenylamino)-4,5,6,7-tetrahydro-1H-indol-2-yl]-1-(2,2,2-trifluoroethyl)pyridinium trifluoromethanesulfonate] | 475 |
| O=C1CCCc2[nH]c(-c3ccnc(NC(=O)C4CC4c4ccccc4)c3)c(Nc3ccccc3)c21 (stereo not shown) [Example 239, N-{4-[4-oxo-3-(phenylamino)-4,5,6,7-tetrahydro-1H-indol-2-yl]pyridin-2-yl}-2-phenylcyclopropanecarboxamide] | 45.9 |
| CCOc1cccc(Nc2c(-c3ccncc3)[nH]c3c2C(=O)CC(C)(C)C3)c1 [Example 104, 3-[(3-ethoxyphenyl)amino]-6,6-dimethyl-2-(pyridin-4-yl)-1,5,6,7-tetrahydro-4H-indol-4-one] | 524 |
| Cc1cccc(Nc2c(-c3ccncc3)[nH]c3c2C(=O)CC(C)(C)C3)c1 [Example 3, 6,6-dimethyl-3-[(3-methylphenyl)amino]-2-(pyridin-4-yl)-1,5,6,7-tetrahydro-4H-indol-4-one] | 37.8 |
| COc1cc(C(=O)Nc2cc(-c3[nH]c4c(c3Nc3ccccc3)C(=O)CCC4)ccn2)ccc1F [Example 453, 4-fluoro-3-methoxy-N-{4-[4-oxo-3-(phenylamino)-4,5,6,7-tetrahydro-1H-indol-2-yl]pyridin-2-yl}benzamide] | 10 |
| O=C(Cc1ccccc1)Nc1cc(-c2[nH]c3c(c2Nc2ccccc2)C(=O)CCC3)ccn1 [Example 233, N-{4-[4-oxo-3-(phenylamino)-4,5,6,7-tetrahydro-1H-indol-2-yl]pyridin-2-yl}-2-phenylacetamide] | 43.9 |
| CC1(C)CC(=O)c2c([nH]c(-c3ccncc3)c2Nc2ccc(F)c(OC(F)(F)F)c2)C1 [Example 148, 3-{[4-fluoro-3-(trifluoromethoxy)phenyl]amino}-6,6-dimethyl-2-(pyridin-4-yl)-1,5,6,7-tetrahydro-4H-indol-4-one] | 479 |
| CNc1cc(-c2[nH]c3c(c2Nc2ccccc2)C(=O)CC(C)(C)C3)ccn1 [Example 145, 6,6-dimethyl-2-[2-(methylamino)pyridin-4-yl]-3-(phenylamino)-1,5,6,7-tetrahydro-4H-indol-4-one] | 148 |

Further compounds by falling IC50, results first:

| IC50 [nM] | Compound |
| --- | --- |
| 1260 | CC1(C)CC(=O)c2c([nH]c(-c3ccnc(NCCc4ccccc4)c3)c2Nc2ccccc2)C1 [Example 498, 6,6-dimethyl-3-(phenylamino)-2-{2-[(2-phenylethyl)amino]pyridin-4-yl}-1,5,6,7-tetrahydro-4H-indol-4-one] |
| 576 | CCOc1ccccc1Nc1c(-c2ccncc2)[nH]c2c1C(=O)CC(C)(C)C2 [Example 128, 3-[(2-ethoxyphenyl)amino]-6,6-dimethyl-2-(pyridin-4-yl)-1,5,6,7-tetrahydro-4H-indol-4-one] |
| 558 | Cc1cc(-c2[nH]c3c(c2Nc2ccccc2)C(=O)CCC3)ccn1 [Example 143, 2-(2-methylpyridin-4-yl)-3-(phenylamino)-1,5,6,7-tetrahydro-4H-indol-4-one] |
| 552 | O=C1CCCc2[nH]c(-c3ccnc(NC(=S)NCC4CC4)c3)c(Nc3ccccc3)c21 [Example 398, 1-(cyclopropylmethyl)-3-{4-[4-oxo-3-(phenylamino)-4,5,6,7-tetrahydro-1H-indol-2-yl]pyridin-2-yl}thiourea] |
| 356 | O=C1CCCc2[nH]c(-c3ccnc(NCc4cncs4)c3)c(Nc3ccccc3)c21 [Example 500, 3-(phenylamino)-2-{2-[(1,3-thiazol-5-ylmethyl)amino]pyridin-4-yl}-1,5,6,7-tetrahydro-4H-indol-4-one] |
| 312 | CC1(C)CC(=O)c2c([nH]c(-c3ccnc(C(F)F)c3)c2Nc2cccc(F)c2)C1 [Example 402, 2-[2-(difluoromethyl)pyridin-4-yl]-3-[(3-fluorophenyl)amino]-6,6-dimethyl-1,5,6,7-tetrahydro-4H-indol-4-one] |
| 167 | COc1ccc(Nc2c(-c3ccncc3)[nH]c3c2C(=O)CC(C)(C)C3)c(OC)c1 [Example 62, 3-[(2,4-dimethoxyphenyl)amino]-6,6-dimethyl-2-(pyridin-4-yl)-1,5,6,7-tetrahydro-4H-indol-4-one] |
| 127 | CN1C(=O)CCC1C(=O)Nc1cc(-c2[nH]c3c(c2Nc2ccccc2)C(=O)CCC3)ccn1 (stereo not shown) [Example 310, 1-methyl-5-oxo-N-{4-[4-oxo-3-(phenylamino)-4,5,6,7-tetrahydro-1H-indol-2-yl]pyridin-2-yl}-prolinamide] |
| 48.4 | O=C(Cc1cscn1)Nc1cc(-c2[nH]c3c(c2Nc2ccccc2)C(=O)CCC3)ccn1 [Example 287, N-{4-[4-oxo-3-(phenylamino)-4,5,6,7-tetrahydro-1H-indol-2-yl]pyridin-2-yl}-2-(1,3-thiazol-4-yl)acetamide] |
| 12.7 | O=C(Nc1cc(-c2[nH]c3c(c2Nc2ccccc2)C(=O)CCC3)ccn1)c1ccn[nH]1 [Example 275, N-{4-[4-oxo-3-(phenylamino)-4,5,6,7-tetrahydro-1H-indol-2-yl]pyridin-2-yl}-1H-pyrazole-5-carboxamide] |
| 10.9 | Cn1ncnc1COCC(=O)Nc1cc(-c2[nH]c3c(c2Nc2ccccc2)C(=O)CCC3)ccn1 [Example 494, 2-[(1-methyl-1H-1,2,4-triazol-5-yl)methoxy]-N-{4-[4-oxo-3-(phenylamino)-4,5,6,7-tetrahydro-1H-indol-2-yl]pyridin-2-yl}acetamide] |
| 10.1 | O=C(Nc1ccncc1)Nc1cc(-c2[nH]c3c(c2Nc2ccccc2)C(=O)CCC3)ccn1 [Example 385, 1-{4-[4-oxo-3-(phenylamino)-4,5,6,7-tetrahydro-1H-indol-2-yl]pyridin-2-yl}-3-pyridin-4-ylurea] |
| 7.89 | O=C(COCc1ccc(F)cc1)Nc1cc(-c2[nH]c3c(c2Nc2ccccc2)C(=O)CCC3)ccn1 [Example 341, 2-[(4-fluorobenzyl)oxy]-N-{4-[4-oxo-3-(phenylamino)-4,5,6,7-tetrahydro-1H-indol-2-yl]pyridin-2-yl}acetamide] |
| 6.53 | Cc1cc(COCC(=O)Nc2cc(-c3[nH]c4c(c3Nc3ccccc3)C(=O)CCC4)ccn2)on1 [Example 350, 2-[(3-methyl-1,2-oxazol-5-yl)methoxy]-N-{4-[4-oxo-3-(phenylamino)-4,5,6,7-tetrahydro-1H-indol-2-yl]pyridin-2-yl}acetamide] |
| 5.55 | CC1(C)CC(=O)c2c([nH]c(-c3ccncc3)c2Nc2cc(F)cc(F)c2)C1 [Example 31, 3-[(3,5-difluorophenyl)amino]-6,6-dimethyl-2-(pyridin-4-yl)-1,5,6,7-tetrahydro-4H-indol-4-one] |
